Data: PubChem BioAssay AID330 (DTP/NCI, 2004)
Inconclusive results and toxic doses are left out. How the source made its calls: active means survival T/C of 150% or more; inactive means T/C below 125% in these data.

System: P388 leukemia ip, CD2F1 mice, survival T/C
Assay: NCI In Vivo Anticancer Drug Screen. Data for tumor model P388 Leukemia (intraperitoneal) in CD2F1 (CDF1) mice
Conditions: endpoint: median survival time, higher = longer survival
Outline: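 Mice carrying the transplanted tumor received test compound or vehicle. Survival was recorded in each group, and the value is the treated-group measurement divided by that of the vehicle-treated control group.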

[1] = dose: 100.0 mg/kg/injection, schedule: Q01DX009 (ip), vehicle: saline with Tween-80
[2] = dose: 200.0 mg/kg/injection, schedule: Q01DX009 (ip), vehicle: saline with Tween-80
[3] = dose: 25.0 mg/kg/injection, schedule: Q01DX009 (ip), vehicle: Klucel (hydroxypropylcellulose) (HPC)
[4] = dose: 50.0 mg/kg/injection, schedule: Q01DX009 (ip), vehicle: Klucel (hydroxypropylcellulose) (HPC)
[5] = dose: 100.0 mg/kg/injection, schedule: Q01DX009 (ip), vehicle: Klucel (hydroxypropylcellulose) (HPC)

Measured: T/C

COc1ccc([N+](=O)[O-])c(C#N)c1
inactive: dose: 100.0 mg/kg/injection, schedule: Q04DX003 (ip), vehicle: saline 98 % of control | dose: 200.0 mg/kg/injection, schedule: Q04DX003 (ip), vehicle: saline 93 % of control | dose: 400.0 mg/kg/injection, schedule: Q04DX003 (ip), vehicle: saline 100 % of control

NC(=O)c1ccc([N+](=O)[O-])o1
inactive: dose: 12.5 mg/kg/injection, schedule: Q01DX009 (ip), vehicle: saline 99 % of control | dose: 25.0 mg/kg/injection, schedule: Q01DX009 (ip), vehicle: saline 100 % of control | dose: 50.0 mg/kg/injection, schedule: Q01DX009 (ip), vehicle: saline 95 % of control | dose: 100.0 mg/kg/injection, schedule: Q01DX009 (ip), vehicle: saline 108 % of control

O=P(CCC(O)c1ccccc1)(c1ccccc1)c1ccccc1 (centres undefined)
inactive: dose: 25.0 mg/kg/injection, schedule: Q01DX009 (ip), vehicle: saline sonified 100 % of control | dose: 50.0 mg/kg/injection, schedule: Q01DX009 (ip), vehicle: saline sonified 90 % of control

CCOC(=O)NC12c3ccccc3C(c3ccccc31)C(C(=O)O)C2C(=O)O (centres undefined)
inactive: [1] 118 % of control | [2] 118 % of control | dose: 400.0 mg/kg/injection, schedule: Q01DX009 (ip), vehicle: saline with Tween-80 118 % of control

OC1COCC1O (centres undefined)
inactive: [3] 100 % of control | [4] 102 % of control | [5] 100 % of control

CC(=O)c1cccc(NC(=O)Nc2nccs2)c1
inactive: [3] 102 % of control | [4] 110 % of control | [5] 101 % of control | dose: 200.0 mg/kg/injection, schedule: Q01DX009 (ip), vehicle: Klucel (hydroxypropylcellulose) (HPC) 105 % of control

O=C(CC(=O)N1N=C(N(c2ccccc2)c2ccccc2)CC1c1ccccc1)Nc1ccccc1Cl (centres undefined)
inactive: dose: 50.0 mg/kg/injection, schedule: Q01DX005 (ip), vehicle: saline with Tween-80 99 % of control | dose: 100.0 mg/kg/injection, schedule: Q01DX005 (ip), vehicle: saline with Tween-80 99 % of control | dose: 240.0 mg/kg/injection, schedule: Q01DX005 (ip), vehicle: saline with Tween-80 90 % of control

Nc1nnc(SCc2ccccc2)s1
inactive: dose: 3.13 mg/kg/injection, schedule: Q01DX009 (ip), vehicle: saline with Tween-80 102 % of control | dose: 6.25 mg/kg/injection, schedule: Q01DX009 (ip), vehicle: saline with Tween-80 104 % of control | dose: 12.5 mg/kg/injection, schedule: Q01DX009 (ip), vehicle: saline with Tween-80 109 % of control | dose: 25.0 mg/kg/injection, schedule: Q01DX009 (ip), vehicle: saline with Tween-80 103 % of control

COc1ccc(OC)c(NC(=O)Oc2c(C)cc(Cl)cc2Br)c1
inactive: dose: 50.0 mg/kg/injection, schedule: Q01DX009 (ip), vehicle: saline with Tween-80 97 % of control | [1] 99 % of control | [2] 100 % of control
